Measured values reported in ChEMBL document CHEMBL3352427, “Rational design of the first difluorostatone-based PfSUB1 inhibitors” (Bioorg Med Chem Lett, 2014).
Starred links: 1 amine or outer side, 2 acyl side, 3 side chain; linkers in the order of their positions; H or OH if unused. Non-standard residues stand in square brackets, D forms with d. Residues, ends and D or L forms follow the SMILES beside them. *: point of attachment. X1 = C[C@H](N[*:1])C(=O)C(F)(F)C(=O)[*:2]; X2 = C[C@H](N[*:1])C(O)C(F)(F)C(=O)[*:2]; Cbz = O=C(OCc1ccccc1)*; OBn = c1ccc(CO*)cc1; Bn = c1ccc(C*)cc1; βAla = NCCC(=O)O

How the values were obtained:
[1] = molecular target: T1, Subtilisin-like protease 1 (Plasmodium falciparum) (UniProt O61142); assay: Inhibition of Plasmodium falciparum serine protease subtilisin-like protease 1 at 100 uM by fluorimetric assay
T1 sequence (whole entry): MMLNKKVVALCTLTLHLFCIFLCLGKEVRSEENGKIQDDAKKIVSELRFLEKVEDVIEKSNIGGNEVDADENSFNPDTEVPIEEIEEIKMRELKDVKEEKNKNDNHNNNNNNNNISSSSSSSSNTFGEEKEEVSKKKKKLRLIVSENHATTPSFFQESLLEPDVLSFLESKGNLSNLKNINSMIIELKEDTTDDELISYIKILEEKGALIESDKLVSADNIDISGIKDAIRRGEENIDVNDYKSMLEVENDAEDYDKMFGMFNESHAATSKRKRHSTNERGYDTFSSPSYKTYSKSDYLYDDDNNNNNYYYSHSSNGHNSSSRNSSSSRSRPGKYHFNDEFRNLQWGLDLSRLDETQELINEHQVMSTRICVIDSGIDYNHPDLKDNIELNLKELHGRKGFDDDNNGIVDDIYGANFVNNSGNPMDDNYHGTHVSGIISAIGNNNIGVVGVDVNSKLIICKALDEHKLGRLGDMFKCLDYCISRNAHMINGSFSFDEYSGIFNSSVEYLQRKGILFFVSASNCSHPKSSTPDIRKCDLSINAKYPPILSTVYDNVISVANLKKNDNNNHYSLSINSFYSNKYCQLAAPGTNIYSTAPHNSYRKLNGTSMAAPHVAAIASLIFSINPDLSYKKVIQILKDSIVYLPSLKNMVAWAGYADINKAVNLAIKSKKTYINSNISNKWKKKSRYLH

[2] = molecular target: T2, Subtilisin-like protease 1 (Plasmodium falciparum, UniProt O61142); assay: Inhibition of Plasmodium falciparum serine protease subtilisin-like protease 1by fluorimetric assay
T2 sequence (O61142 whole entry): T1 sequence (whole entry)

## CC(=O)N[C@H](C(=O)N[C@@H](C)C(=O)N[C@@H](C)C(=O)C(F)(F)C(=O)NCC(=O)O)[C@@H](C)O
[1]
  inhibition: 6%

## CC[C@H](C)[C@H](NC(C)=O)C(=O)N[C@H](C(=O)N[C@@H](C)C(=O)N[C@@H](C)C(=O)C(F)(F)C(=O)NCC(=O)OCc1ccccc1)[C@@H](C)OCc1ccccc1 (Ac-IT(Bn)A[X1]G-OBn)
[2]
  IC50: 33 µM
[1]
  inhibition: 59%

## CC[C@H](C)[C@H](NC(=O)[C@H](CCCCNC(=O)OCc1ccccc1)NC(C)=O)C(=O)N[C@H](C(=O)N[C@@H](C)C(=O)N[C@@H](C)C(=O)C(F)(F)C(=O)NCC(=O)OCc1ccccc1)[C@@H](C)OCc1ccccc1 (Ac-K(Cbz)IT(Bn)A[X1]G-OBn)
[2]
  IC50: 5 µM
[1]
  inhibition: 71%

## CC[C@H](C)[C@H](NC(=O)[C@H](CCCCNC(=O)OCc1ccccc1)NC(C)=O)C(=O)N[C@H](C(=O)N[C@@H](C)C(=O)N[C@@H](C)C(=O)C(F)(F)C(=O)NCCC(=O)OCc1ccccc1)[C@@H](C)OCc1ccccc1 (Ac-K(Cbz)IT(Bn)A[X1][βAla]-OBn)
[1]
  inhibition: 14%

## CC[C@H](C)[C@H](NC(=O)[C@H](CCCCNC(=O)OCc1ccccc1)NC(C)=O)C(=O)N[C@H](C(=O)N[C@@H](C)C(=O)N[C@@H](C)C(O)C(F)(F)C(=O)NCC(=O)OCc1ccccc1)[C@@H](C)OCc1ccccc1 (some centres undefined) (Ac-K(Cbz)IT(Bn)A[X2]G-OBn)
[1]
  inhibition: 3%

## CC[C@H](C)[C@H](NC(C)=O)C(=O)N[C@H](C(=O)N[C@@H](C)C(=O)N[C@@H](C)C(=O)C(F)(F)C(=O)NCC(=O)O)[C@@H](C)O (HELM PEPTIDE1{[ac].I.T.A.[C[C@H](N[*:1])C(=O)C(F)(F)C(=O)[*:2]].G}$$$$V2.0)
[2]
  IC50: 0.6 µM
[1]
  inhibition: 99%

## CC[C@H](C)[C@H](NC(=O)[C@H](CCCCN)NC(C)=O)C(=O)N[C@H](C(=O)N[C@@H](C)C(=O)N[C@@H](C)C(=O)C(F)(F)C(=O)NCC(=O)O)[C@@H](C)O (HELM PEPTIDE1{[ac].K.I.T.A.[C[C@H](N[*:1])C(=O)C(F)(F)C(=O)[*:2]].G}$$$$V2.0)
[2]
  IC50: 0.6 µM
[1]
  inhibition: 100%

## CC[C@H](C)[C@H](NC(=O)[C@H](CCCCN)NC(C)=O)C(=O)N[C@H](C(=O)N[C@@H](C)C(=O)N[C@@H](C)C(=O)C(F)(F)C(=O)NCCC(=O)O)[C@@H](C)O (HELM PEPTIDE1{[ac].K.I.T.A.[C[C@H](N[*:1])C(=O)C(F)(F)C(=O)[*:2]].[bAla]}$$$$V2.0)
[2]
  IC50: 60 µM
[1]
  inhibition: 63%

## CC[C@H](C)[C@H](NC(C)=O)C(=O)N[C@H](C(=O)N[C@@H](C)C(=O)N[C@@H](C)C(O)C(F)(F)C(=O)NCC(=O)OCc1ccccc1)[C@@H](C)OCc1ccccc1 (mixture of isomers)
[1]
  inhibition: 0%
